Measurements: patent US12390437B2, “Itaconic acid derivatives and uses thereof intreating an inflammatory disease or a disease associated with an undesirable immune response” (Sitryx Therapeutics Limited, priority 2019, dated 2025)
Where two headings read alike, the source gives them in different places.

Key:
[1] = test system: IL-1β cytokine output from THP-1s; assay: THP-1 AlphaLISA IL-1β cytokine assay; format: cell-based, human; conditions: Homo sapiens, read-out: IL-1β (IC50)
In short: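 AlphaLISA read-out of cytokine released into supernatants of differentiated THP-1 cells. Cells were PMA-treated for 72 h, exposed to compound for 30 min, stimulated with LPS for 24 h, then given nigericin for 1 h before harvest. IC50 values come from normalised concentration-response curves.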

hepatocytes = assay: Hepatocyte stability assay (mouse); format: in vitro ADME; conditions: 10 μM compound, 0.5×10^6 cells/mL, 60 minutes
Source text: (§1) Defrosted cryo-preserved hepatocytes (viability >70%) are used to determine the metabolic stability of a compound via calculation of intrinsic clearance (Clint; a measure of the removal of a compound from the liver in the absence of blood flow and cell binding). Clearance data are particularly important for in vitro work as they can be used in combination with in vivo data to predict the half-life and oral bioavailability of a drug.
(§2) The metabolic stability in hepatocytes assay involves a time-dependent reaction using both positive and negative controls. The cells must be pre-incubated at 37° C. then spiked with test compound (and positive control); samples taken at pre-determined time intervals are analysed to monitor the change in concentration of the initial drug compound over 60 minutes. A buffer incubation reaction (with no hepatocytes present) acts as a negative control and two cocktail solutions, containing compounds with known high and low clearance values (verapamil/7-hydroxycoumarin and propranolol/diltiazem), act as positive controls. • 1. The assay is run with a cell concentration of 0.5×10^6 cells/mL in Leibovitz buffer. • 2. All compounds and controls are run in duplicate. • 3. Compound concentration is 10 μM. • 4. All compounds and controls are incubated with both cells and buffer to show turnover is due to hepatic metabolism. • 5. All wells on the incubation plate will have 326.7 μL of either cells or buffer added. • 6. Prior to assay, cell and buffer-only incubation plates are preincubated for 10 mins at 37° C. • 7. The assay is initiated by adding compounds, 3.3 μL of 1 mM in 10% DMSO-90% Buffer; final DMSO concentration is 0.1%. • 8. Samples are taken at regular timepoints (0, 5, 10, 20, 40, 60 min) until 60 mins. • 9. Sample volume is 40 μL and it is added to 160 μL of crash solvent (acetonitrile with internal standard) and stored on ice. • 10. At the end of the assay, the crash plates are centrifuged at 3500 rpm for 20 mins at 4° C. • 11. 80 μL of clear supernatant is removed and mixed with 80 μL of deionised water before being analysed by LC-MS/MS.
(§3) Raw LC-MS/MS data are exported to, and analysed in, Microsoft Excel for determination of intrinsic clearance. The percentage remaining of a compound is monitored using the peak area of the initial concentration as 100%. Intrinsic clearance and half-life values are calculated using a graph of the natural log of percentage remaining versus the time of reaction in minutes. Half-life (min) and intrinsic clearance (Clint in μL min^−1 10^−6 cells) values are calculated using the gradient of the graph (the elimination rate constant, k) and Equations 1 and 2.

[2] = Hepatocyte stability assay (mouse); format: in vitro ADME; conditions: cryopreserved hepatocytes, 10 μM compound, 0.5×10^6 cells/mL, 60 minutes, read-out: T½
Source text: as §1, §2, §3

[3] = Mouse pharmacokinetic study, oral administration; format: in vivo; conditions: for concentration at 0.083 h / concentration at 0.25 h / concentration at 0.5 h / concentration at 1 h / concentration at 2 h / concentration at 4 h / concentration at 6 h / concentration at 8 h / concentration at 24 h: male
In short: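 Plasma levels were quantified by LC-MS/MS after dosing male C57BL/6 mice either intravenously (10 mg/kg, sampled to 8 hours) or orally by gavage (100 mg/kg, sampled to 24 hours), with three animals per time point.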

[4] = THP-1, PMA-differentiated THP-1 cells, LPS 24 hr then Nigericin 1 hour
[5] = C57BL/6, mouse, plasma, po, 100 mg/kg, plasma, male C57BL/6 mice, oral gavage 100 mg/kg, 0.083 h, read-out: Parent compound concentrations following oral administration, Time 0.083 h
[6] = C57BL/6, mouse, plasma, po, 100 mg/kg, plasma, male C57BL/6 mice, oral gavage 100 mg/kg, 0.25 h, read-out: Parent compound concentrations following oral administration, Time 0.25 h
[7] = C57BL/6, mouse, plasma, po, 100 mg/kg, plasma, male C57BL/6 mice, oral gavage 100 mg/kg, 0.5 h, read-out: Parent compound concentrations following oral administration, Time 0.5 h
[8] = C57BL/6, mouse, plasma, po, 100 mg/kg, plasma, male C57BL/6 mice, oral gavage 100 mg/kg, 1 h, read-out: Parent compound concentrations following oral administration, Time 1 h
[9] = C57BL/6, mouse, plasma, po, 100 mg/kg, plasma, male C57BL/6 mice, oral gavage 100 mg/kg, 2 h, read-out: Parent compound concentrations following oral administration, Time 2 h
[10] = C57BL/6, mouse, plasma, po, 100 mg/kg, plasma, male C57BL/6 mice, oral gavage 100 mg/kg, 4 h, read-out: Parent compound concentrations following oral administration, Time 4 h
[11] = C57BL/6, mouse, plasma, po, 100 mg/kg, plasma, male C57BL/6 mice, oral gavage 100 mg/kg, 6 h, read-out: Parent compound concentrations following oral administration, Time 6 h
[12] = C57BL/6, mouse, plasma, po, 100 mg/kg, plasma, male C57BL/6 mice, oral gavage 100 mg/kg, 8 h, read-out: Parent compound concentrations following oral administration, Time 8 h
[13] = C57BL/6, mouse, plasma, po, 100 mg/kg, plasma, male C57BL/6 mice, oral gavage 100 mg/kg, 24 h, read-out: Parent compound concentrations following oral administration, Time 24 h

| SMILES | IC50 [1, 4] [µM] | CIint (μL min^−1 10^−6 cells) (hepatocytes) | half-life at 10 μM [2] [min] | concentration at 0.083 h [3, 5] [ng/mL] | concentration at 0.25 h [3, 6] [ng/mL] | concentration at 0.5 h [3, 7] [ng/mL] | concentration at 1 h [3, 8] [ng/mL] | concentration at 2 h [3, 9] [ng/mL] | concentration at 4 h [3, 10] [ng/mL] | concentration at 6 h [3, 11] [ng/mL] | concentration at 8 h [3, 12] [ng/mL] | concentration at 24 h [3, 13] [ng/mL] | further results |
| --- | --- | --- | --- | --- | --- | --- | --- | --- | --- | --- | --- | --- | --- |
| C=C(CC(=O)O[C@@H](C)CCCCCC)C(=O)OCC(=O)O [Example 89, (S)-2-((2-methylene-4-(octan-2-yloxy)-4-oxobutanoyl)oxy)acetic acid] | 17.5 | 198 | 13 | 44000 | 39100 | 28500 | 14000 | 4740 | 918 | 582 | 16 | 6.8 |  |
| C=C(CC(=O)OC1CCCCCCC1)C(=O)OCC(=O)O [Example 90, 2-((4-(cyclooctyloxy)-2-methylene-4-oxobutanoyl)oxy)acetic acid] | 16.4 | 47 | 30 | 22900 | 10600 | 6200 | 3370 | 3470 | 1640 | 1050 | 500 | 1.1 |  |
| C=C(CC(=O)OC1CCCCC1)C(=O)OCC(=O)O [Example 91, 2-((4-(cyclohexyloxy)-2-methylene-4-oxobutanoyl)oxy)acetic acid] | 48.1 | 29 | 48 |  | 8860 | 6240 | 1920 | 450 | 33 |  | 19 | 13 |  |
| C=C(CC(=O)OCCCCCC)C(=O)OCC(=O)O [Example 94, 2-((4-(hexyloxy)-2-methylene-4-oxobutanoyl)oxy)acetic acid] | 5.3 | 60 | 23 | 27800 | 12600 | 8220 | 3110 | 2140 | 392 | 196 | 90 | < 0.8 |  |
| C=C(CC(=O)OC1CC2(CCC2)C1)C(=O)OCC(=O)O [Example 96, 2-((2-methylene-4-oxo-4-(spiro[3.3]heptan-2-yloxy)butanoyl)oxy)acetic acid] | 15.7 | 112 | 12 | 15300 | 4770 | 3780 | 1550 | 810 | 856 | 330 | 443 | < 0.8 |  |
| C=C(CC(=O)O[C@H](C)CCCCCC)C(=O)OCC(=O)O [Example 112, (R)-2-((2-methylene-4-(octan-2-yloxy)-4-oxobutanoyl)oxy)acetic acid] | 14.6 | 255 | 13 | 79800 | 64600 | 72300 | 49500 | 31400 | 21300 | 6780 | 12200 | 25 | IC50 ([1]; THP-1, Table 10, assay of Biological Example 1 (THP-1)): 14.6 µM; concentration at 0.083 h ([3]; C57BL/6, po, mouse plasma, Example 112 dosed orally at 100 mg/kg (Intermediate 8 = metabolite), time 0.083 h, read-out: Example 112 and Intermediate 8 concentrations following oral administration): 109000 ng/mL; concentration at 0.25 h ([3]; C57BL/6, po, mouse plasma, Example 112 dosed orally at 100 mg/kg (Intermediate 8 = metabolite), time 0.25 h, read-out: Example 112 and Intermediate 8 concentrations following oral administration): 116000 ng/mL; concentration at 0.5 h ([3]; C57BL/6, po, mouse plasma, Example 112 dosed orally at 100 mg/kg (Intermediate 8 = metabolite), time 0.5 h, read-out: Example 112 and Intermediate 8 concentrations following oral administration): 74200 ng/mL; concentration at 1 h ([3]; C57BL/6, po, mouse plasma, Example 112 dosed orally at 100 mg/kg (Intermediate 8 = metabolite), time 1 h, read-out: Example 112 and Intermediate 8 concentrations following oral administration): 27900 ng/mL; concentration at 2 h ([3]; C57BL/6, po, mouse plasma, Example 112 dosed orally at 100 mg/kg (Intermediate 8 = metabolite), time 2 h, read-out: Example 112 and Intermediate 8 concentrations following oral administration): 14000 ng/mL; concentration at 4 h ([3]; C57BL/6, po, mouse plasma, Example 112 dosed orally at 100 mg/kg (Intermediate 8 = metabolite), time 4 h, read-out: Example 112 and Intermediate 8 concentrations following oral administration): 4880 ng/mL; concentration at 6 h ([3]; C57BL/6, po, mouse plasma, Example 112 dosed orally at 100 mg/kg (Intermediate 8 = metabolite), time 6 h, read-out: Example 112 and Intermediate 8 concentrations following oral administration): 4020 ng/mL; concentration at 8 h ([3]; C57BL/6, po, mouse plasma, Example 112 dosed orally at 100 mg/kg (Intermediate 8 = metabolite), time 8 h, read-out: Example 112 and Intermediate 8 concentrations following oral administration): 867 ng/mL; concentration at 24 h ([3]; C57BL/6, po, mouse plasma, Example 112 dosed orally at 100 mg/kg (Intermediate 8 = metabolite), time 24 h, read-out: Example 112 and Intermediate 8 concentrations following oral administration): < 8 ng/mL; Metabolism in vivo ([3]; mouse pharmacokinetic study, oral): undergoes hydrolysis in vivo to form Intermediate 8 |
| C=C(CC(=O)OC1CCCCC1)C(=O)OCc1nnn[nH]1 [Example 125, 1-((2H-tetrazol-5-yl)methyl) 4-cyclohexyl 2-methylenesuccinate] | 17 | 101 | 16 | 9360 | 4360 | 2650 | 1430 | 785 | 427 | 163 | 15 | < 0.8 |  |
| C=C(CC(=O)O[C@@H](C)CCCCCC)C(=O)OCCc1nnn[nH]1 [Example 129, (S)-1-(2-(1H-tetrazol-5-yl)ethyl) 4-octan-2-yl 2-methylenesuccinate] | 5.5 | 378 | 4 | 305 | 1030 | 109 | 255 | 61 | 13 | 16 | 11 | 3.5 |  |
